Experimental data as given in patent publication US6358706B1, “DNA encoding human alpha1G-C T-Type calcium channel” (Ortho-McNeil Pharmaceutical, Inc., priority 1999, dated 2002).
Read-outs that look alike come from different tables or passages of the source.

How the values were obtained:
[1] = molecular target: T1, human calcium channel alpha1G-c (Homo sapiens, UniProt O43497); experiment: two-electrode voltage clamp of Xenopus oocytes expressing human calcium channel alpha1G-c; assay type: cell-based; conditions: for block of peak human alpha1G-c currents / effect on peak human alpha1G-c currents: 100 μM; for block of peak current: 200 μM, clamped at −100 mV between test pulses
T1 construct: first reported cloning of a full length DNA molecule encoding the; expressed in transfected cells; host or cells: Xenopus laevis oocytes injected with cRNA transcribed from pGEM HE
T1 sequence (O43497 1-2273 isoform O43497-6): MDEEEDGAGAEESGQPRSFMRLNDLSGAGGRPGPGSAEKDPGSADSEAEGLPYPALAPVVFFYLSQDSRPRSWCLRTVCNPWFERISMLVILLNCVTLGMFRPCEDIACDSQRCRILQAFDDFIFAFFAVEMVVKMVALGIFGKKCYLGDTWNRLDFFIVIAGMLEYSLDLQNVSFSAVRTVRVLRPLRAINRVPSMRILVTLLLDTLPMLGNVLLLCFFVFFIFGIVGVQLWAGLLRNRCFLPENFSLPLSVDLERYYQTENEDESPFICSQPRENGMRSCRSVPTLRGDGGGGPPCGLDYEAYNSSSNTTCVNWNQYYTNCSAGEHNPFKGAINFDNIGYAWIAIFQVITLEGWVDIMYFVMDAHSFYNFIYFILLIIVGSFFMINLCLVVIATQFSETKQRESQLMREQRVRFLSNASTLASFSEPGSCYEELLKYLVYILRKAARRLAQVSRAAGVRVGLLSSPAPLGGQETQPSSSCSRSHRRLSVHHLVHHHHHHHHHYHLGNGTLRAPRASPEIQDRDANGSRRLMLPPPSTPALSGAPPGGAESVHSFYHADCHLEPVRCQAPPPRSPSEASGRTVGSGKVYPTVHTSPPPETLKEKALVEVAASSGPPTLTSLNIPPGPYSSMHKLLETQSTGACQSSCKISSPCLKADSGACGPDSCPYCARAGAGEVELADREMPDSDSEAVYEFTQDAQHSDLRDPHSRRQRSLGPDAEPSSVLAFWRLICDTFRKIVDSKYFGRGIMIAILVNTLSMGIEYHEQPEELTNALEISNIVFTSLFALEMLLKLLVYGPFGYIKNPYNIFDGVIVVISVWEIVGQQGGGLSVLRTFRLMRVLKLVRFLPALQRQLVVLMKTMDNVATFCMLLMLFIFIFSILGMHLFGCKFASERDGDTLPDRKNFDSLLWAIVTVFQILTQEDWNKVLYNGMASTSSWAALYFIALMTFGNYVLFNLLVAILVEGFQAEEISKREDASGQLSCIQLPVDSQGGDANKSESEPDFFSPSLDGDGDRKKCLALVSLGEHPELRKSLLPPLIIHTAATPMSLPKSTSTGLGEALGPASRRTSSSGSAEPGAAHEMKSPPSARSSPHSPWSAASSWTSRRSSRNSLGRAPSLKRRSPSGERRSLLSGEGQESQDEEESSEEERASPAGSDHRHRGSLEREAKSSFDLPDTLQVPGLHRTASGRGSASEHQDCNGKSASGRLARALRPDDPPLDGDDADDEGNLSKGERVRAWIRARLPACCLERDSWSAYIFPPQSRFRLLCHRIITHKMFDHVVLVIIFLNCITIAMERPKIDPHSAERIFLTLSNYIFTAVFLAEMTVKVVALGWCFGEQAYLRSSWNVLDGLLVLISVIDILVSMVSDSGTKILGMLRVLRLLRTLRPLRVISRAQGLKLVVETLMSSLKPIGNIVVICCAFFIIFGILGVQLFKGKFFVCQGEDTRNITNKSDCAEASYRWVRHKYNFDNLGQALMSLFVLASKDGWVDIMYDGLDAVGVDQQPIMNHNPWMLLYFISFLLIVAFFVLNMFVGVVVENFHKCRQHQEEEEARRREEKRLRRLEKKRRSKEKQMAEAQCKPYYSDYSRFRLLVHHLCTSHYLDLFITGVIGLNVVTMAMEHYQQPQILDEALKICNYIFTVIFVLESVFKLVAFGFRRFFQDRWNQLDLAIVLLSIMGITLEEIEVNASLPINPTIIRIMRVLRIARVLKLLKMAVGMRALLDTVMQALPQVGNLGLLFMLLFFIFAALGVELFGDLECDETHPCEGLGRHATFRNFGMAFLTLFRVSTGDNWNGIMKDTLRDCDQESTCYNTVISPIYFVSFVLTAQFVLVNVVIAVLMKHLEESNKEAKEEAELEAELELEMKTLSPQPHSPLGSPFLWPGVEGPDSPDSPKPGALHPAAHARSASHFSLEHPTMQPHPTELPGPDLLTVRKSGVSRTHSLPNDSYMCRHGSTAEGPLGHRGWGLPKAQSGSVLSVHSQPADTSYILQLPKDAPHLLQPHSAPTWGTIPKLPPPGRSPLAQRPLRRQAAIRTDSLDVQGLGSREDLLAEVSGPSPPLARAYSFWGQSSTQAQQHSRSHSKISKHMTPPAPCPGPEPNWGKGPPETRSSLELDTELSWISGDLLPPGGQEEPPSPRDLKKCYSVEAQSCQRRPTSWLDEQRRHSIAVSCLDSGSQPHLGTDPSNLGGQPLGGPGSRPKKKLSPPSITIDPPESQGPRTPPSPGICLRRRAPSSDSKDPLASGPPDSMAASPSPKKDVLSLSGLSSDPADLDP
Procedure: Xenopus laevis oocytes were prepared and injected using standard methods previously described and known in the art (Fraser, S. P. et al. (1993)). Ovarian lobes from adult female Xenopus laevis (Nasco, Fort Atkinson, Wis.) were teased apart, rinsed several times in nominally Ca-free saline containing: 82.5 mM NaCl, 2.5 mM KCl, 1 mM MgCl2, 5 mM HEPES, adjusted to pH 7.0 with NaOH (OR-2), and gently shaken in OR-2 containing 0.2% collagenase Type 1 (ICN Biomedicals, Aurora, Ohio) for 2-5 hours. When approximately 50% of the follicular layers were removed, Stage V and VI oocytes were selected and rinsed in media consisting of 75% OR-2 and 25% ND-96. The ND-96 contained: 100 mM NaCl, 2 mM KCl, 1 mM MgCl2, 1.8 mM CaCl2, 5 mM HEPES, 2.5 mM Na pyruvate, gentamicin (50 ug/ml), adjusted to pH 7.0 with NaOH. […] The synthesized cRNA was precipitated with ammonium acetate and isopropanol, and resuspended in 50 μl nuclease-free water. cRNA was quantified using formaldehyde gels (1% agarose, 1×MOPS , 3% formaldehyde) against RNA markers (Gibco BRL, 0.24-9.5 Kb).
Oocytes were injected with 50 nl of the human calcium channel alpha1G-c cRNA (about 600 ng). Control oocytes were injected with 50 nl of water. Oocytes were incubated in ND-96 before analysis for expression of the human calcium channel alpha1G-c. Incubations and collagenase digestion were carried out at room temperature. Injected oocytes were maintained in 48 well cell culture clusters (Costar; Cambridge, Mass.) at 18° C. Whole cell agonist-induced currents were measured 3-6 days after injection with a conventional two-electrode voltage clamp (GeneClamp500, Axon Instruments, Foster City, Calif.) using standard methods previously described and known in the art (Dascal, N. (1987)). The microelectrodes were filled with 3 M KCl, which had resistances of 1 and 2 MΩ. Cells were continuously perfused with ND96 at 2-5 mi/min at room temperature unless indicated. In some experiments, cells were bathed in a 40 mM Ba saline containing (in mM): 40 BaCl2, 2 KCl, 36 TEA-Cl, 5 4-AP and 5 HEPES, pH 7.6. Membrane voltage was clamped at −100 mV unless indicated.
Oocytes were bathed in ND96,

mouse alpha1G = conditions: cited from earlier work
human alpha1H = molecular target: T2, human alpha1H (Homo sapiens, UniProt O95180); conditions: cited from earlier work; for IC50: expressed in oocytes
T2 construct: host or cells: oocytes
T2 sequence (O95180 whole entry): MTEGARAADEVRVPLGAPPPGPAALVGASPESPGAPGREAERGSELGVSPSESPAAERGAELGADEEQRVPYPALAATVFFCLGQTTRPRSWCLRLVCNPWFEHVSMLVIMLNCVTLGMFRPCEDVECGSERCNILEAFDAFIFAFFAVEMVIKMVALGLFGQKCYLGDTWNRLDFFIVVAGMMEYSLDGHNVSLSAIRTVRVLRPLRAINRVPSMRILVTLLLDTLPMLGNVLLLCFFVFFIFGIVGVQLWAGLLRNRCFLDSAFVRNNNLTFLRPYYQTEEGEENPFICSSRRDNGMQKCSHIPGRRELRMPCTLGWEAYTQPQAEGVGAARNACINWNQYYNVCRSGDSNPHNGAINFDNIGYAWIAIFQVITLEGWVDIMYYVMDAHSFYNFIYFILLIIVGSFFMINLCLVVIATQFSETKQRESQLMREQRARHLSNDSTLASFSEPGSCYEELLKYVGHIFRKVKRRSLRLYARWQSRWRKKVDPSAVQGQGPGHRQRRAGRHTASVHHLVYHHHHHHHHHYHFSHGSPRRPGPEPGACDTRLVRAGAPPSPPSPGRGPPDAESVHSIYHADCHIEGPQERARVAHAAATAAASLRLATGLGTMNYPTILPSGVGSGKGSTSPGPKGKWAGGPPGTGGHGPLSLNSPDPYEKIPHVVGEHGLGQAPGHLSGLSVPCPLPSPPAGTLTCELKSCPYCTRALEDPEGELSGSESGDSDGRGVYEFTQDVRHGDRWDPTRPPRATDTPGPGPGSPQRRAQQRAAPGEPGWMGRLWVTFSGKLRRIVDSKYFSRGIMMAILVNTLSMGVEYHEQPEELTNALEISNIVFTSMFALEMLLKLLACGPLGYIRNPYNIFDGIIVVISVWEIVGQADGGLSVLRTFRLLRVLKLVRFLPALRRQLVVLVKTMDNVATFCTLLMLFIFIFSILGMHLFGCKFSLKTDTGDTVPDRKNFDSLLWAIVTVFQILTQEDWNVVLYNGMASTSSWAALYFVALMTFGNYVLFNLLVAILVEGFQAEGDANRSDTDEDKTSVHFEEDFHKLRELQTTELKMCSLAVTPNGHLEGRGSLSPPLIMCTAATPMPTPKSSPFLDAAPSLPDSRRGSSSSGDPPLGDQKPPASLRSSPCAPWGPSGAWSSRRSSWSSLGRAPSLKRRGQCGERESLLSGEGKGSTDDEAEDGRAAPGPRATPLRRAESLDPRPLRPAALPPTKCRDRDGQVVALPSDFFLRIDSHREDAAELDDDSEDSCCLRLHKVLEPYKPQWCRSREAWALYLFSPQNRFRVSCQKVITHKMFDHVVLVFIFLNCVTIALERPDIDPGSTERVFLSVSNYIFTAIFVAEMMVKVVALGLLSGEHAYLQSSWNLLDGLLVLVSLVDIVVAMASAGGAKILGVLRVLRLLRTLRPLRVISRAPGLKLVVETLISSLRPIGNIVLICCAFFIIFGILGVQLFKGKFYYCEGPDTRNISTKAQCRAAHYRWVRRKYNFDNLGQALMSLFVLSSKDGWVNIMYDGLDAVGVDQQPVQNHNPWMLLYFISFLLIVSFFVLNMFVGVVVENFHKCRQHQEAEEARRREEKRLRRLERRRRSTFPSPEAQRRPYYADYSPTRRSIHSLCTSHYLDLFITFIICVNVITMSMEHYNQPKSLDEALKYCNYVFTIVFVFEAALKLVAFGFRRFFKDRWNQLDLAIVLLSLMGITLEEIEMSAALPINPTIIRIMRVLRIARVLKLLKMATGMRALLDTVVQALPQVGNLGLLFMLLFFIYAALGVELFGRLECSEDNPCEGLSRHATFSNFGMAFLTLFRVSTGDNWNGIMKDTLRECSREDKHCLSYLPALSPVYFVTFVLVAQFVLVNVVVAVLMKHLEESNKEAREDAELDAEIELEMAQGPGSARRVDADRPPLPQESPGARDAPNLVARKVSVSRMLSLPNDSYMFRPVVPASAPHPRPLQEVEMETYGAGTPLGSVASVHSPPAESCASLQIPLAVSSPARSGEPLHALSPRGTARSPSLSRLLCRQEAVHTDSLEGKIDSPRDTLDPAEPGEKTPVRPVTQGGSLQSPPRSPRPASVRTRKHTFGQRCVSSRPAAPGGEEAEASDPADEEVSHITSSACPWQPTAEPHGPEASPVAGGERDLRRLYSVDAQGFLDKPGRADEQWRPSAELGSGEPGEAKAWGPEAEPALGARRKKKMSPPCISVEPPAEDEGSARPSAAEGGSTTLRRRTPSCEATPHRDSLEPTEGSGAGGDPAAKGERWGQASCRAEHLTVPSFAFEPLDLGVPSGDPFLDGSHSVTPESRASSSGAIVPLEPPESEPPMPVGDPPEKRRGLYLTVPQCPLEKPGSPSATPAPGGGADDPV

T-type calcium channels = conditions: range over cell types; read-out: EC50's depending on the cell type; cited from earlier work
[2] = system: T type currents from guinea pig or rat ventrobasal thalamic neurons; design: maximal block: dose or concentration left out as unconfirmed; conditions: cited from earlier work
[3] = system: LVCC in hippocampal CA3 neurons; conditions: 250 μM or 1 mM; cited from earlier work
[4] = system: T-type calcium channels from dorsal root ganglion neurons; conditions: neurons from one-day-old rats, cited from earlier work
L-type current = conditions: neurons from one-day-old rats; cited from earlier work

SMILES: O=C(O)c1c2ccccc2cc2ccccc12 [9-AC, anthracene-9-carboxylic acid]
- block of peak human alpha1G-c currents [1]: 30+/−3%

SMILES: [Cd+2] [Cd^2+]
- block of peak human alpha1G-c currents [1]: 44+/−9%

SMILES: O=S(=O)(O)c1cc(N=C=S)ccc1C=Cc1ccc(N=C=S)cc1S(=O)(=O)O [DIDS, 4,4′-diisothiocyanatostilbene-2.2′-disulfonic acid]
- block of peak human alpha1G-c currents [1]: 16+/−13%
- effect on peak human alpha1G-c currents [1]: no effect

SMILES: O=C(O)c1cc([N+](=O)[O-])ccc1NCCCc1ccccc1 [NPPB, 5-Nitro-2-(3-phenylpropylamino)benzoic acid]
- block of human alpha1G-c currents ([1]; 20 μM): 22+/−6%
- block of peak human alpha1G-c currents [1]: 55+/−7%
- block of peak current [1]: 89+/−7%
- sensitivity of human alpha1G-c to block ([1]; expressed in oocytes): blocked halpha1G-c currents

SMILES: [Cl][Ni][Cl] [NiCl2]
- block of peak current [1]: 25+/−6%
- current blocked relative to 200 μM ([1]; 1 mM, same cell): about twice the current blocked by 200 μM Ni^2+
- sensitivity of human alpha1G-c to block ([1]; expressed in oocytes): relatively insensitive
- sensitivity (mouse alpha1G; as opposed to other T-type channels): very low sensitivity
- IC50 (human alpha1H): ~6 µM

SMILES: N=C(N)NC(=O)c1nc(Cl)c(N)nc1N [amiloride]
- block of peak currents [1]: 23+/−4%
- sensitivity of human alpha1G-c to block [1]: sensitive
- IC50 (human alpha1H): ~20 µM
- EC50 (T-type calcium channels): ≥ 50 µM

SMILES: CCC1(C)CC(=O)NC1=O (stereo not shown) [ethosuximide]
- reversible block of peak currents ([1]; 600 μM, −100 mV between voltage pulses, ND96 and Ba2+ salines similar): 26+/−−3%
- sensitivity of human alpha1G-c to block ([1]; expressed in oocytes): sensitive
- effect on T-currents ([2]; in 25% of the TCs tested): no effect
- sensitivity of all components of the LVCC [3]: insensitive
- maximal block [4]: 100%
- Kd ([4]; read-out: Kd for T-current): 7 µM
- Kd (L-type current): 15 µM
- block of human alpha1H currents (human alpha1H; 300 μM): ~7%
- sensitivity (human alpha1H): insensitive

SMILES: COCC(=O)O[C@]1(CCN(C)CCCc2nc3ccccc3[nH]2)CCc2cc(F)ccc2[C@@H]1C(C)C [mibefradil, (1S,2S)-2-[2-[[3-(1H-benzimidazol-2-yl)propyl]methyl-amino]ethyl]-6-fluoro-1-isopropyl-1,2,3,4-tetrahydronaphthalen-2-yl methoxyacetate]
- IC50 (mouse alpha1G; most prominent (low affinity) site): ~0.4 µM
- maximal block [2]: ~40%
- IC50 ([2]; majority of T type currents): ~500 µM

SMILES: O=C(O)c1cccnc1Nc1cccc(C(F)(F)F)c1 [niflumic acid]
- block of peak human alpha1G-c currents [1]: 0+/−2%
- effect on peak human alpha1G-c currents [1]: no effect
